For data set [1] the following is noted: cited from earlier work.
A short description of data set [2]: Metabolite identification in rat plasma, bile, urine and feces by UPLC-QTOF-MSE. Format: in vivo. Particulars: rats, RPDQ 48 mg/kg i.g. As to the method:
For a metabolism study, RPDQ (48 mg/kg, i.g.) was administered to obtain a high concentration of metabolites. […] The pooled plasma sample (500 μL) was then added with methanol (2 mL) to vortex and precipitate proteins. Subsequently, the mixtures were centrifuged (10,000 rpm, 4 °C, 10 min) to obtain the supernatant, which was then evaporated by N2 to obtain the residue. Methanol (100 μL) was used to reconstitute the residue. In order to obtain bile samples, rats were anaesthetized with urethane (1.0 g/kg, intraperitoneal injection). After making an abdominal incision, the bile was collecting by surgically inserting a plastic cannula into the bile ducts. Prior to administration, blank bile was collected for 2 h. After administration, bile samples were collected for 12 h. By using metabolism cages, blank and dosed urine and feces samples were also collected prior to administration or 24 h after administration. After diluting each urine or bile sample (300 μL) with 1 mL of methanol, the mixture was centrifuged (10,000 rpm, 4 °C, 10 min) to obtain the supernatant, which was then evaporated by N2 to obtain the dried urine or bile residue. Methanol (50 μL) was then used to dissolve each residue. After centrifuging (10,000 rpm, 4 °C, 10 min), the clear supernatants were used for the analysis. […] Metabolic characterization of RPDQ was analyzed using UNIFI 1.7.0 software (Waters, Manchester, UK).

The format of data set [3] is in vitro ADME. Particulars: rat, 100 ng/mL. As to the method: RPDQ and 20R-panaxadiol stock methanol solutions (1.00 mg/mL) were all prepared with the reference compounds, respectively. Firstly, blank rat plasma was prepared. The blood samples were collected immediately from the abdominal aorta and incubated at 37 °C for 30 min. The plasma was separated by centrifugation at 4000 rpm for 15 min, and was frozen at −20 °C until analysis. By spiking the dilute solutions with blank rat plasma, calibration curves were plotted to produce the points equivalent to 5, 10, 25, 50, 100, 300, 500, and 1000 ng/mL for RPDQ. […] All the QC and calibration standards samples were prepared freshly before analysis. The specificity, linearity, LLOQ, precision and accuracy, extraction recovery, matrix effect, diluted reliability, and stability of the method were validated by following a non-clinical drug pharmacokinetic study technical guideline (China Food And Drug Administration 2014) and the Bioanalytical Method Validation Guideline (Chinese Pharmacopoeia 2015, Vol. 4). Specificity was assessed by comparing blank plasma samples, plasma was spiked with RPDQ and 20R-panaxadiol, and plasma samples were collected after administration. Linearity was analyzed through weighted regression (1/x^2) of peak area ratios (y) of RPDQ to 20R-panaxadiol versus nominal concentration (x) in plasma. […] The intra- and inter-day precision and accuracy were evaluated with the analysis of six replicate QC samples on three consecutive days, respectively. The extraction recovery and matrix effect at three QC concentrations were assayed. By comparing peak areas of RPDQ and 20R-panaxadiol in extracted QC samples with those in post-extracted blank plasma samples, the recoveries were calculated. Moreover, by comparing the peak area of samples spiked after extraction with that of the neat solution’s equivalent concentration, the matrix effect was then evaluated. Stability was evaluated by analyzing replicate QC samples, which were stored at −20 °C for two weeks at room temperature for 4 h, and experienced three freeze/thaw cycles (from −20 °C to room temperature) on consecutive days. The stabilities of RPDQ in stock solutions at 15 °C and stored in plastic autosampler vials for 16 h at 10 °C were also assessed. Five-fold higher concentrations of QC were achieved by adding moderate RPDQ to blank plasma. The samples were then diluted and analyzed with undiluted calibration standards. The accuracy and precision were within acceptable limits (± 15%).

Setting [4] is: after intragastric administration.

The values that follow come from publication PMC6222672, “Pharmacokinetic and Metabolism Studies of 12-Riboside-Pseudoginsengenin DQ by UPLC-MS/MS and UPLC-QTOF-MS^E” (Molecules : A Journal of Synthetic Chemistry and Natural …, 2018).

What is called bioavailability is dose-corrected exposure relative to a reference, in per cent.

Read-outs that look alike come from different tables or passages of the source.

On to `CC(C)=CCC[C@](C)(O[C@@H]1O[C@H](CO)[C@@H](O)[C@H](O)[C@H]1O)[C@H]1CC[C@]2(C)[C@@H]1[C@H](O)C[C@@H]1[C@@]3(C)CC[C@H](O)C(C)(C)[C@@H]3CC[C@]12C` [CK, Ginsenoside CK], for which the bioavailability in data set [1] (setting [4]) is recorded as 4.30%.
Take `CC(C)=CCC[C@](C)(O[C@@H]1O[C@H](CO[C@@H]2O[C@H](CO)[C@@H](O)[C@H](O)[C@H]2O)[C@@H](O)[C@H](O)[C@H]1O)[C@H]1CC[C@]2(C)[C@@H]1[C@H](O)C[C@@H]1[C@@]3(C)CC[C@H](O[C@@H]4O[C@H](CO)[C@@H](O)[C@H](O)[C@H]4O[C@@H]4O[C@H](CO)[C@@H](O)[C@H](O)[C@H]4O)C(C)(C)[C@@H]3CC[C@]12C` [Rb1, Ginsenosides Rb1]: in data set [1] (setting [4]), the bioavailability is 0.78% and the “biological half time (t1/2)” value was 9.8 h.
Turning to `CC(C)=CCC[C@](C)(O[C@@H]1O[C@H](CO[C@@H]2OC[C@@H](O)[C@H](O)[C@H]2O)[C@@H](O)[C@H](O)[C@H]1O)[C@H]1CC[C@]2(C)[C@@H]1[C@H](O)C[C@@H]1[C@@]3(C)CC[C@H](O[C@@H]4O[C@H](CO)[C@@H](O)[C@H](O)[C@H]4O[C@@H]4O[C@H](CO)[C@@H](O)[C@H](O)[C@H]4O)C(C)(C)[C@@H]3CC[C@]12C` [Rb3], in data set [1] (setting [4]), the bioavailability is reported as 0.52% and the “biological half time (t1/2)” value is reported as 21.1 h.
As to `CC(C)=CCC[C@](C)(O[C@@H]1O[C@H](CO)[C@@H](O)[C@H](O)[C@H]1O)[C@H]1CC[C@]2(C)[C@@H]1[C@H](O)C[C@@H]1[C@@]3(C)CC[C@H](O)C(C)(C)[C@@H]3[C@@H](O[C@@H]3O[C@H](CO)[C@@H](O)[C@H](O)[C@H]3O)C[C@]12C` [Rg1], the bioavailability in data set [1] (setting [4]) is reported as 1.33%.
Take `CC(C)=CCC[C@](C)(O[C@@H]1O[C@H](CO[C@@H]2OC[C@H](O)[C@H](O)[C@H]2O)[C@@H](O)[C@H](O)[C@H]1O)[C@H]1CC[C@]2(C)[C@@H]1[C@H](O)C[C@@H]1[C@@]3(C)CC[C@H](O[C@@H]4O[C@H](CO)[C@@H](O)[C@H](O)[C@H]4O[C@@H]4O[C@H](CO)[C@@H](O)[C@H](O)[C@H]4O)C(C)(C)[C@@H]3CC[C@]12C` [Rb2]: in data set [1] (setting [4]), the bioavailability was 0.08% and the “biological half time (t1/2)” value is recorded as 23.1 h.
`CC1(C)C(O)CCC2(C)C1CCC1(C)C2CC(O)C2C([C@]3(C)CC[C@@H](C(C)(C)O)O3)CC[C@]21C` (stereo partly shown) [pseudoginsengenin DQ]: the “Source (samples in which detected: plasma, bile, feces, urine)” value in data set [2] was “P,B, F,U”. Further, the “biological half time (t1/2)” value in data set [1] (setting [4]) is 5.97 h.
As to `CC(C)=CCC[C@](C)(O)[C@H]1CC[C@]2(C)[C@@H]1[C@H](O)C[C@@H]1[C@@]3(C)CC[C@H](O)C(C)(C)[C@@H]3[C@@H](O[C@@H]3O[C@H](CO)[C@@H](O)[C@H](O)[C@H]3O)C[C@]12C` [Rh1], in data set [1] (setting [4]), the bioavailability was 1.01% and the t1/2 is 25.8 min.
As for `CC(C)=CCCC(C)(O)C1CCC2(C)C1C(O)CC1C3(C)CCC(O)C(C)(C)C3CCC12C` (stereo not shown) [protopanaxdiol], in data set [1] (rat, in vivo, po), the “bioavailability (F)” value was 36.8% and the “elimination half-life (t1/2)” value is 88.8 min.
`CC1(C)CCCC(C)(C2CC[C@]3(C)C2C(O)CC2C4(C)CCC(O)C(C)(C)C4CCC23C)O1` (stereo partly drawn) [IS, 20R-panaxadiol, reference compound]: the Mean concentration in data set [3] turned out to be 94.11 ± 3.47 ng/mL; in data set [3] (4 h) it was 92.34 ± 3.12 ng/mL; in data set [3] (16 h), 91.34 ± 2.31 ng/mL; in data set [3] (14 d) it was 94.74 ± 4.25 ng/mL. Moreover, the Accuracy in data set [3] (3 freeze-thaw cycles) is reported as −5.89%; in data set [3] (4 h), −7.66%; in data set [3] (16 h), −8.66%; in data set [3] (14 d), −5.26%.
